Tests used:
Rac1 [1] = assay type: cell-based, African green monkey
CaCo-2 monolayer [2] = assay type: cell-based, human
TcdB [3] = conditions: SPR, 2400 RUs biotinylated TcdB on streptavidin chip; α-def-6 0.1 to 6 µM; 10 mM HEPES, 150 mM NaCl, 50 µM EDTA, 0.005% Tween 20, pH 7.0; 25 µL/min, 25 °C; 4 min injection
Experimental: (A) 2400 RUs of biotinylated TcdB were immobilized via streptavidin-biotin binding onto a streptavidin sensor chip, and α-def-6 (concentrations as indicated) was applied to the chip for 4 min followed by a dissociation phase with a flow of running buffer. A solution of 6 µM of α-def-6 was injected twice to assess reproducibility, and β-def-1 (6 µM) served as a control. The flow rate was 25 µL/min.
TcdB was biotinylated via EZ-Link^TM Sulfo-NHS-Biotin (Thermo Fisher Scientific, Waltham, MA, USA) according to the manufacturer’s protocol. Briefly, TcdB was incubated with Sulfo-NHS-Biotin for 30 min at room temperature (RT). To remove the excess non-reacted biotin, TcdB was rebuffered with a Zeba^TM Spin Desalting Column (Thermo Fisher Scientific, Waltham, MA, USA). The successful biotinylation was verified via Western blotting and detection with peroxidase-conjugated streptavidin (1:2500, F. Hoffmann-La Roche AG, Basel, Switzerland).
The binding of α-def-6 to biotinylated TcdB was analyzed via surface plasmon resonance spectroscopy (SPR) with a Reichert SPR7500DC SPR spectrometer (Reichert Technologies, Buffalo, NY, USA). All analytes were dialyzed in running buffer (10 mM HEPES, 150 mM NaCl, 50 µM EDTA, 0.005% (v/v) Tween®20, pH 7.0) beforehand. Experiments were performed with a flow rate of 25 µL/min at 25 °C. […]

CaCo-2 monolayer [4] = assay type: cell-based, human; remark: listed apart in the source
CaCo-2 cells [5] = tested on: CaCo-2 cells
TcdB glucosyltransferase = assay: In vitro glucosylation of Rac1 by TcdB (CaCo-2 lysate, Western blot); assay type: biochemical, C. difficile VPI 10463; conditions: CaCo-2 cell lysate 40 µg, TcdB 50 ng; α-def-6 up to 12 µM; 2 h, 37 °C, pH 7.5; Western blot (n = 4)
Experimental: The flow rate was 25 µL/min. […] A representative gel is shown (n = 2). […] GAPDH served as the loading control. A representative Western blot is shown.
To evaluate the potential effects of α-def-6 on TcdB glucosyltransferase activity, 40 µg of CaCo-2 cell lysate were used as a source of Rac1 and incubated with TcdB (50 ng) in glucosylation buffer (50 mM HEPES, 100 mM KCl, 2 mM MgCl2, 1 mM MnCl2, 100 mg/L BSA, pH 7.5) in a final volume of 20 µL. Two concentrations of α-def-6 (6 µM, 12 µM) were tested. Reactions were allowed to proceed for 2 h at 37 °C and stopped with the addition of a Laemmli buffer and heating for 10 min at 95 °C. The samples were loaded onto a 12.5% polyacrylamide gel and separated via SDS-PAGE followed by Western blotting. Unspecific binding sites were blocked with 5% (w/v) skim milk powder diluted in PBS with 0.1% (v/v) Tween®20 (PBS-T, pH 7.4) for 1 h at RT. The glucosylation status of Rac1 was assessed by probing with a mouse anti-Rac1-antibody (1:500, #610651, BD Biosciences, Franklin Lakes, NJ, USA) specifically directed against non-glucosylated Rac1 overnight at 4 °C. After washing, the membrane was incubated with a secondary horseradish-peroxidase (HRP)-conjugated goat-anti-mouse antibody (1:2500, #31430, Invitrogen by Thermo Fisher Scientific, Waltham, MA, USA) for 1 h at RT. Signals were detected using the ECL-system. […]

SARS-CoV-2 = conditions: ref [55]; cited from earlier work
From the text: There is increasing evidence that α-def-6 represents an outlier among the α-defensins, which is also noticeable in the context of bacterial toxins. Anti-toxin activities have already been described for several α-defensins.

CaCo-2 monolayer [6] = tested on: CaCo-2 monolayer
Rac1 [7] = assay type: cell-based, African green monkey; remark: listed apart in the source
Rac1 [8] = assay type: cell-based, African green monkey; remark: listed apart in the source
TcdB [9] = conditions: TcdB 50 ng, α-def-6 6 µM, PBS, 0.5 h, 37 °C (n = 3)
Experimental: (C) TcdB (50 ng) was incubated with or without α-def-6 (6 µM) in PBS for 0.5 h at 37 °C. Samples were centrifuged to segregate aggregates and divided into a supernatant (S) and pellet (P) fraction. Fractions were subjected to SDS-PAGE followed by Western blotting. TcdB was detected.
The TcdB stock was centrifuged for 20 min at 14,000 rpm and 4 °C to remove any preformed aggregates. TcdB (50 ng) was incubated in the absence or presence of α-def-6 (6 µM) for 30 min at 37 °C in a final volume of 35 µL PBS. The samples were centrifuged as before to segregate possible aggregates and subsequently separated into a supernatant (30 µL) and pellet fraction (5 µL). The pellet fraction was resuspended with 25 µL PBS to a final volume of 30 µL. Each fraction (30 µL) was then subjected to SDS-PAGE (8% polyacrylamide gel) and Western blotting. TcdB was detected using an anti-TcdB-antibody (1:1000, #ab270452, Abcam, Cambridge, UK) followed by an HRP-conjugated mouse anti-rabbit antibody (1:2500; #sc-2357; Santa Cruz Biotechnology, Dallas, TX, USA).

Rac1 [10] = assay type: cell-based, African green monkey; remark: listed apart in the source
CaCo-2 cells [11] = tested on: CaCo-2 cells; remark: listed apart in the source

## CC[C@H](C)[C@@H]1NC(=O)CNC(=O)[C@H](CCSC)NC(=O)[C@H](C(C)C)NC(=O)[C@H]([C@@H](C)O)NC(=O)[C@@H]2CSSC[C@@H]3NC(=O)[C@H](Cc4c[nH]cn4)NC(=O)[C@@H](NC(=O)[C@@H](NC(=O)[C@H](Cc4ccccc4)NC(=O)[C@H](C)N)[C@@H](C)O)CSSC[C@@H](C(=O)N[C@@H](CC(C)C)C(=O)O)NC(=O)[C@H](CSSC[C@H](NC(=O)[C@H](CO)NC(=O)[C@H](CCCNC(=N)N)NC(=O)[C@H](CCCNC(=N)N)NC3=O)C(=O)N[C@@H](Cc3ccc(O)cc3)C(=O)N[C@@H](CO)C(=O)N[C@@H]([C@@H](C)O)C(=O)N[C@@H](CCC(=O)O)C(=O)N[C@@H](Cc3ccc(O)cc3)C(=O)N[C@@H](CO)C(=O)N[C@@H](Cc3ccc(O)cc3)C(=O)NCC(=O)N[C@@H]([C@@H](C)O)C(=O)N2)NC(=O)[C@H](Cc2ccccc2)NC(=O)[C@H](CCCNC(=N)N)NC(=O)[C@H](Cc2c[nH]cn2)NC(=O)[C@H](CC(N)=O)NC1=O [α-def-6]
Rac1 [1]
  Rac1 modification by TcdA + TcdB: diminished the toxin-mediated Rac1-modification
CaCo-2 monolayer [2]
  TEER, TcdA + TcdB: clear delay in TEER-reduction
TcdB [3]
  interaction with immobilized TcdB: direct, concentration-dependent interaction
CaCo-2 monolayer [4]
  TEER, TcdA: clear delay in TEER-reduction
CaCo-2 cells [5]
  amount of rounded CaCo-2 cells, TcdA + TcdB: reduced amount of rounded CaCo-2 cells was visible for at least 6 h
TcdB glucosyltransferase
  inhibition of enzymatic activity of the glucosyltransferase domain of TcdB: almost no inhibition
Vero cells
  inhibition of toxin effects on cells, TcdB: clear inhibition
  protection of cells against TcdB: almost complete protection
  reduction of the amount of rounded cells: clear concentration-dependent reduction of the amount of rounded cells
Vero cells; 5 h
  IC50: ~500 nM
SARS-CoV-2
  prevention of infection of cells with SARS-CoV-2: cannot prevent the infection of cells with SARS-CoV-2
CaCo-2 monolayer [6]
  TEER, TcdB: clear delay in TEER-reduction
  cytotoxic effects on the monolayer, TcdB: time-dependent inhibition of the cytotoxic effects on the monolayer
Rac1 [7]
  glucosylation of Rac1 by TcdA: clearly less Rac1 was glucosylated
Rac1 [8]
  glucosylation of Rac1 in intact cells: less Rac1 was glucosylated
TcdB [9]
  shift of TcdB to pellet fraction: shift of TcdB from the supernatant to the pellet fraction
Rac1 [10]
  glucosylation of Rac1 by TcdB: clearly less Rac1 was glucosylated
CaCo-2 cells [11]
  amount of rounded CaCo-2 cells, TcdB: reduced amount of rounded CaCo-2 cells was visible for at least 6 h

Source: PMC9101188, “Human α-Defensin-6 Neutralizes Clostridioides difficile Toxins TcdA and TcdB by Direct Binding” (International Journal of Molecular Sciences, 2022)
